Results from ChEMBL document CHEMBL4308841, “Synthesis, in vitro antiproliferative activity, and kinase inhibitory effects of pyrazole-containing diarylureas and diarylamides” (Eur J Med Chem, 2018).

Key:
[1] = tested on: SNB-75; assay: Growth inhibition of human SNB75 cells assessed as cell growth at 0.1 uM incubated for 48 hrs by sulforhodamine B assay relative to control; assay type: functional; conditions: SNB-75, 48 h, read-out: Activity
[2] = tested on: DU-145; assay: Growth inhibition of human DU145 cells incubated for 48 hrs by sulforhodamine B assay; assay type: functional, cell-based; conditions: DU-145, 48 h
[3] = tested on: A498; assay: Growth inhibition of human A498 cells incubated for 48 hrs by sulforhodamine B assay; assay type: functional, cell-based; conditions: A498, 48 h
[4] = tested on: HCT-116; assay: Growth inhibition of human HCT116 cells assessed as cell growth at 0.1 uM incubated for 48 hrs by sulforhodamine B assay relative to control; assay type: functional; conditions: HCT-116, 48 h, read-out: Activity
[5] = tested on: KM12; assay: Growth inhibition of human KM12 cells assessed as cell growth at 100 uM incubated for 48 hrs by sulforhodamine B assay relative to control; assay type: functional; conditions: KM12, 48 h, read-out: Activity
[6] = tested on: DU-145; assay: Growth inhibition of human DU145 cells assessed as cell growth at 1 uM incubated for 48 hrs by sulforhodamine B assay relative to control; assay type: functional; conditions: DU-145, 48 h, read-out: Activity
[7] = tested on: OVCAR-4; assay: Growth inhibition of human OVCAR4 cells assessed as cell growth at 0.1 uM incubated for 48 hrs by sulforhodamine B assay relative to control; assay type: functional; conditions: OVCAR-4, 48 h, read-out: Activity
[8] = tested on: SF-539; assay: Growth inhibition of human SF539 cells assessed as cell growth at 0.1 uM incubated for 48 hrs by sulforhodamine B assay relative to control; assay type: functional; conditions: SF-539, 48 h, read-out: Activity
[9] = tested on: TK-10; assay: Growth inhibition of human TK10 cells assessed as cell growth at 10 uM incubated for 48 hrs by sulforhodamine B assay relative to control; assay type: functional; conditions: TK-10, 48 h, read-out: Activity
[10] = tested on: A549; assay: Growth inhibition of human A549/ATCC cells assessed as cell growth at 0.01 uM incubated for 48 hrs by sulforhodamine B assay relative to control; assay type: functional; conditions: A549, 48 h, read-out: Activity
[11] = tested on: KM12; assay: Growth inhibition of human KM12 cells assessed as cell growth at 0.1 uM incubated for 48 hrs by sulforhodamine B assay relative to control; assay type: functional; conditions: KM12, 48 h, read-out: Activity
[12] = tested on: U-251; assay: Growth inhibition of human U251 cells assessed as cell growth at 1 uM incubated for 48 hrs by sulforhodamine B assay relative to control; assay type: functional; conditions: U-251, 48 h, read-out: Activity
[13] = tested on: RXF 393; assay: Growth inhibition of human RXF393 cells assessed as cell growth at 0.1 uM incubated for 48 hrs by sulforhodamine B assay relative to control; assay type: functional; conditions: RXF 393, 48 h, read-out: Activity
[14] = tested on: RPMI-8226; assay: Growth inhibition of human RPMI8226 cells assessed as cell growth at 1 uM incubated for 48 hrs by sulforhodamine B assay relative to control; assay type: functional; conditions: RPMI-8226, 48 h, read-out: Activity
[15] = tested on: SK-MEL-28; assay: Growth inhibition of human SK-MEL-28 cells assessed as cell growth at 1 uM incubated for 48 hrs by sulforhodamine B assay relative to control; assay type: functional; conditions: SK-MEL-28, 48 h, read-out: Activity
[16] = tested on: HOP-62; assay: Growth inhibition of human HOP62 cells assessed as cell growth at 0.1 uM incubated for 48 hrs by sulforhodamine B assay relative to control; assay type: functional; conditions: HOP-62, 48 h, read-out: Activity
[17] = tested on: MOLT-4; assay: Growth inhibition of human MOLT4 cells assessed as cell growth at 0.1 uM incubated for 48 hrs by sulforhodamine B assay relative to control; assay type: functional; conditions: MOLT-4, 48 h, read-out: Activity
[18] = tested on: KM12; assay: Growth inhibition of human KM12 cells incubated for 48 hrs by sulforhodamine B assay; assay type: functional, cell-based; conditions: KM12, 48 h
[19] = tested on: 786-0; assay: Growth inhibition of human 786-0 cells assessed as cell growth at 100 uM incubated for 48 hrs by sulforhodamine B assay relative to control; assay type: functional; conditions: 786-0, 48 h, read-out: Activity
[20] = tested on: SF-268; assay: Growth inhibition of human SF268 cells assessed as cell growth at 1 uM incubated for 48 hrs by sulforhodamine B assay relative to control; assay type: functional; conditions: SF-268, 48 h, read-out: Activity
[21] = tested on: KM12; assay: Growth inhibition of human KM12 cells assessed as cell growth at 1 uM incubated for 48 hrs by sulforhodamine B assay relative to control; assay type: functional; conditions: KM12, 48 h, read-out: Activity
[22] = tested on: HT-29; assay: Growth inhibition of human HT-29 cells assessed as cell growth at 100 uM incubated for 48 hrs by sulforhodamine B assay relative to control; assay type: functional; conditions: HT-29, 48 h, read-out: Activity
[23] = tested on: SW-620; assay: Growth inhibition of human SW620 cells assessed as cell growth at 1 uM incubated for 48 hrs by sulforhodamine B assay relative to control; assay type: functional; conditions: SW-620, 48 h, read-out: Activity
[24] = tested on: MCF7; assay: Growth inhibition of human MCF7 cells assessed as cell growth at 0.01 uM incubated for 48 hrs by sulforhodamine B assay relative to control; assay type: functional; conditions: MCF7, 48 h, read-out: Activity
[25] = tested on: ACHN; assay: Growth inhibition of human ACHN cells assessed as cell growth at 0.01 uM incubated for 48 hrs by sulforhodamine B assay relative to control; assay type: functional; conditions: read-out: Activity
[26] = tested on: OVCAR-3; assay: Growth inhibition of human OVCAR3 cells incubated for 48 hrs by sulforhodamine B assay; assay type: functional, cell-based; conditions: OVCAR-3, 48 h
[27] = tested on: NCI/ADR-RES; assay: Growth inhibition of human NCI/ADR-RES cells assessed as cell growth at 100 uM incubated for 48 hrs by sulforhodamine B assay relative to control; assay type: functional; conditions: read-out: Activity
[28] = tested on: SK-MEL-5; assay: Growth inhibition of human SK-MEL-5 cells assessed as cell growth at 100 uM incubated for 48 hrs by sulforhodamine B assay relative to control; assay type: functional; conditions: SK-MEL-5, 48 h, read-out: Activity
[29] = tested on: HL-60(TB); assay: Growth inhibition of human HL-60(TB) cells assessed as cell growth at 100 uM incubated for 48 hrs by sulforhodamine B assay relative to control; assay type: functional; conditions: HL-60, 48 h, read-out: Activity
[30] = tested on: SK-MEL-28; assay: Growth inhibition of human SK-MEL-28 cells assessed as cell growth at 0.1 uM incubated for 48 hrs by sulforhodamine B assay relative to control; assay type: functional; conditions: SK-MEL-28, 48 h, read-out: Activity
[31] = tested on: SNB-75; assay: Growth inhibition of human SNB75 cells assessed as cell growth at 100 uM incubated for 48 hrs by sulforhodamine B assay relative to control; assay type: functional; conditions: SNB-75, 48 h, read-out: Activity
[32] = read-out: LC50 (the source's name)
[33] = read-out: pLC50 (the source's name) (converted)

COc1cc(Cl)cc(-c2nn(-c3cccc(NC(=O)c4cccc(C(F)(F)F)c4)c3)cc2-c2ccncc2)c1
growth at 0.1 µM [1]: 54%
GI50 ([2]; read-out: GI50): > 100 µM
CC50 [2, 32]: > 100 µM
TGI ([2]; read-out: TGI): > 100 µM
GI50 ([2]; read-out: pGI50 (converted)): > 100 µM
CC50 [2, 33]: > 100 µM
TGI ([2]; read-out: pTGI (converted)): > 100 µM
CC50 [3, 32]: > 100 µM
TGI ([3]; read-out: TGI): > 100 µM
CC50 [3, 33]: > 100 µM
TGI ([3]; read-out: pTGI (converted)): > 100 µM
growth at 0.1 µM [4]: 94%
growth at 100 µM [5]: 28%
growth at 1 µM [6]: 100%
growth at 0.1 µM [7]: 95%
growth at 0.1 µM [8]: 100%
growth at 10 µM [9]: 72.7%
growth at 0.01 µM [10]: 98%
growth at 0.1 µM [11]: 111%
growth at 1 µM [12]: 65%
growth at 0.1 µM [13]: 65%
growth at 1 µM [14]: 79%
growth at 1 µM [15]: 92%
growth at 0.1 µM [16]: 101%
growth at 0.1 µM [17]: 95%
GI50 ([18]; read-out: GI50): 4.53 µM
CC50 [18, 32]: > 100 µM
TGI ([18]; read-out: TGI): > 100 µM
GI50 ([18]; read-out: pGI50 (converted)): 4.57 µM
CC50 [18, 33]: > 100 µM
TGI ([18]; read-out: pTGI (converted)): > 100 µM
growth at 100 µM [19]: 44%
growth at 1 µM [20]: 100%
growth at 1 µM [21]: 56%
growth at 100 µM [22]: 34%
growth at 1 µM [23]: 107%
growth at 0.01 µM [24]: 93%
growth at 0.01 µM [25]: 98%
IC50 [26]: 7.69 µM
GI50 ([26]; read-out: GI50): 7.59 µM
CC50 [26, 32]: > 100 µM
TGI ([26]; read-out: TGI): > 100 µM
GI50 ([26]; read-out: pGI50 (converted)): 7.76 µM
CC50 [26, 33]: > 100 µM
TGI ([26]; read-out: pTGI (converted)): > 100 µM
growth at 100 µM [27]: 31%
growth at 100 µM [28]: 20%
growth at 100 µM [29]: 49%
growth at 0.1 µM [30]: 97%
growth at 100 µM [31]: 49%

O=C(Nc1cccc(-n2cc(-c3ccncc3)c(-c3cc(O)cc(Cl)c3)n2)c1)c1ccc(N2CCOCC2)c(C(F)(F)F)c1
growth at 0.1 µM [1]: 83%
GI50 ([2]; read-out: GI50): 5.55 µM
CC50 [2, 32]: > 100 µM
TGI ([2]; read-out: TGI): > 100 µM
GI50 ([2]; read-out: pGI50 (converted)): 5.62 µM
CC50 [2, 33]: > 100 µM
TGI ([2]; read-out: pTGI (converted)): > 100 µM
GI50 ([3]; read-out: GI50): 1.94 µM
CC50 [3, 32]: > 100 µM
TGI ([3]; read-out: TGI): 73.2 µM
GI50 ([3]; read-out: pGI50 (converted)): 19.5 µM
CC50 [3, 33]: > 100 µM
TGI ([3]; read-out: pTGI (converted)): 72.4 µM
growth at 0.1 µM [4]: 102%
growth at 100 µM [5]: 4%
growth at 1 µM [6]: 92%
growth at 0.1 µM [7]: 103%
growth at 0.1 µM [8]: 93%
growth at 10 µM [9]: 70.3%
growth at 0.01 µM [10]: 103%
growth at 0.1 µM [11]: 105%
growth at 1 µM [12]: 51%
growth at 0.1 µM [13]: 85%
growth at 1 µM [14]: 17%
growth at 1 µM [15]: 44%
growth at 0.1 µM [16]: 112%
growth at 0.1 µM [17]: 97%
GI50 ([18]; read-out: GI50): 1.21 µM
CC50 [18, 32]: > 100 µM
TGI ([18]; read-out: TGI): > 100 µM
GI50 ([18]; read-out: pGI50 (converted)): 1.2 µM
CC50 [18, 33]: > 100 µM
TGI ([18]; read-out: pTGI (converted)): > 100 µM
growth at 100 µM [19]: -82%
growth at 1 µM [20]: 89%
growth at 1 µM [21]: 54%
growth at 100 µM [22]: -41%
growth at 1 µM [23]: 107%
growth at 0.01 µM [24]: 91%
growth at 0.01 µM [25]: 100%
IC50 [26]: 7.2 µM
GI50 ([26]; read-out: GI50): 7.2 µM
CC50 [26, 32]: > 100 µM
TGI ([26]; read-out: TGI): > 100 µM
GI50 ([26]; read-out: pGI50 (converted)): 7.24 µM
CC50 [26, 33]: > 100 µM
TGI ([26]; read-out: pTGI (converted)): > 100 µM
growth at 100 µM [27]: 25%
growth at 100 µM [28]: -72%
growth at 100 µM [29]: -48%
growth at 0.1 µM [30]: 94%
growth at 100 µM [31]: 1%
